# Test results from ChEMBL document CHEMBL1143708, “5-alkynyl analogs of arabinouridine and 2'-deoxyuridine: cytostatic activity against herpes simplex virus and varicella-zoster thymidine kinase gene-transfected cells” (J Med Chem, 2007).
# System: Vaccinia virus
# Assay: Antiviral activity against Vaccinia virus in E6SM cells assessed as reduction of virus-induced cytopathogenicity
# Type: functional, organism-based
# Settings: Orthopoxvirus vaccinia
row,Compound,EC50 [µg/mL]
1,NC(=O)c1ncn([C@@H]2O[C@H](CO)[C@@H](O)[C@H]2O)n1 [RIBAVIRIN],20
2,C#Cc1cn([C@H]2C[C@H](O)[C@@H](CO)O2)c(=O)[nH]c1=O,0.1
3,Nc1nc2c(ncn2COCCO)c(=O)[nH]1 [ACYCLOVIR],> 400
4,Nc1nc2c(ncn2COC(CO)CO)c(=O)[nH]1 [GANCICLOVIR],> 100
5,O=c1[nH]c(=O)n([C@H]2C[C@H](O)[C@@H](CO)O2)cc1C#CI,0.2
6,C[Si](C)(C)C#Cc1cn([C@H]2C[C@H](O)[C@@H](CO)O2)c(=O)[nH]c1=O,0.2
7,O=c1[nH]c(=O)n([C@H]2C[C@H](O)[C@@H](CO)O2)cc1/C=C/Br [BRIVUDINE],0.2
8,C[Si](C)(C)C#Cc1cn([C@@H]2O[C@H](CO)[C@@H](O)[C@@H]2O)c(=O)[nH]c1=O,7
9,CC(=O)OC[C@H]1O[C@@H](n2cc(C#CI)c(=O)[nH]c2=O)[C@@H](OC(C)=O)[C@@H]1OC(C)=O,> 10
